Data on 7 compounds can be found in patent publication US9867811B2, “Method of treating atherosclerosis in high triglyceride subjects” (NOVARTIS AG, priority 2011, dated 2018).

Test [1] has as its target T1, CETP (Homo sapiens, UniProt P11597).
T1 construct: Human serum samples were obtained from the Novartis Institutes for BioMedical Research donor program; tissue Novartis donor program; Bioreclamation (Westbury, N.Y.); Uniglobe (Reseda, Calif.); host or cells: pooled human donor serum
T1 sequence (P11597 18-493): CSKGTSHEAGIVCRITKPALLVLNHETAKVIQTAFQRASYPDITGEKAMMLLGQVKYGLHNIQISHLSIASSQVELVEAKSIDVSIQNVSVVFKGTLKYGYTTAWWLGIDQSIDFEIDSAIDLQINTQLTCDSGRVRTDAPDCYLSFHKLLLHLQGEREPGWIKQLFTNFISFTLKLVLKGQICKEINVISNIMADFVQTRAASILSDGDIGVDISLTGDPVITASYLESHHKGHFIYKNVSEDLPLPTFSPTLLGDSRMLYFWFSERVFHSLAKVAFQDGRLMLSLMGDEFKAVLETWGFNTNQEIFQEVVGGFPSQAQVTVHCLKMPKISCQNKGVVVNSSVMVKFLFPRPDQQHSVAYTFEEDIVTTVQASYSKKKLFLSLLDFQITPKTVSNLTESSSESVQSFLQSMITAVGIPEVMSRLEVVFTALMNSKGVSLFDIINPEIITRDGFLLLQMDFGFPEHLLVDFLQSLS
Kind of test: In vitro CETP activity assay in human plasma (serum pools of differing triglyceride level). The settings on record: human serum pool. The test is classed as biochemical. On the procedure: Pro-apoA-1 containing microemulsion as a donor particle was prepared following previous report (J. Biol. Chem., 280:14918-22). Glyceryl trioleate (500 ug, Sigma-Aldrich, Cat. No. T7140), 3-sn-phosphatidylcholine (4680 ug, Sigma, Cat. No. P2772), and cholesteryl BODIPY FL 012 (2 mg, Invitrogen, CA, Cat. No. C-3927MP) were dissolved in 1.5 mL of chloroform. The solution was evaporated, and residual solvent was removed under vacuum for more than 1 hr at room temperature. The dried lipid mixture was dissolved in 7 ml of the assay buffer (50 mM Tris-HCl (pH 7.4) containing 150 mM NaCl and 2 mM EDTA) and sonicated in water bath for 1 hr. The solution was split into two tubes of 3.5 ml each. Each tube was sonicated at 50° C. with a microtip (MICROSON™ ULTRASONIC CELL DISRUPTOR, Misonix, Farmingdale, N.Y.) at output power 006 for 10 min (every other 25 seconds). The solution was cooled to 40° C. and 400 ug of pro-apoA-1 was added to each tube (total volume of 4 mL). Then, the solution was sonicated at output power 004 for 20 min (every other 30 seconds). Final Concentration: Glyceryl Tiroleate: 62.5 ug/ml, PC: 585 ug/ml, Bodipy CE: 250 ug/ml, Pro-apoA-1: 100 ug/ml. Centrifuge solution at 5200×g for 5 minutes and store the supernatant at 4′C.
Human serum samples were obtained from the Novartis Institutes for BioMedical Research donor program (normal triglyceride samples) or purchased from Bioreclamation (Westbury, N.Y.) or Uniglobe (Reseda, Calif.). General requirements for human serum donors included: male gender, 20-55 years of age, not currently on a lipid altering medication, non-fasting at time of blood collection, and a total cholesterol level between 200-300 mg/dL. Donor samples were selected primarily on the basis of serum triglyceride level, using the following classifications: normal triglycerides (<150 mg/dL); high triglycerides (300-500 mg/dL); and very high triglycerides (750-1200 mg/dL). A total of 4 individual serum samples from each classification were used in these experiments. For each of the 3 triglyceride classifications, two serum sample pools were prepared. The mean plasma triglyceride concentrations (mg/dL) for the pools were: Normal: 101.35; High: 347.5; Very high 1, 868.45; Very high 2, 1269.35.
Donor solution is prepared by a dilution of donor microemulsion with assay buffer (1.7 ul donor+8.3 ul Buffer). Human serum (25 μL), assay buffer (14 μL) and 50× test compound dissolved in 100% dimethylsulfoxide (1 μL) are added to each well of 384 well black, clear-bottom plate (NUNC. Thermo Fisher #242764). The reaction is started by the addition of donor solution (10 μL) into each well. Fluorescence intensities are measured every 10 min at 37° C. with excitation wave length of 485 nm and emission wavelength of 515 nm over an 80 minute period, using a SpectraMax M5 from Molecular Devices (Sunnyvale, Calif.). The CETP activity (RFU/min) is defined as the change of fluorescence intensity from 40 to 70 min. Percent CETP inhibition is calculated as follows: ((100% Act−Wellcmpnd)/100% Act))*100. IC50 values were calculated with GraphPad Prism 5 software.

For test [2], the system named is CETP. Kind of test: Ex vivo plasma CETP activity assay with exogenously added compound (maximum inhibition). The settings on record: 10 μM, hamster plasma (80% plasma). Format: biochemical. The method, then:
Plasma CETP activity ex vivo was determined as followed: 50 μL of hamster plasma (final 80% plasma) was mixed with 10 μL of donor solution diluted with assay buffer composed of 50 mM Tris-HCl (pH7.4) containing 150 mM NaCl and 2 mM EDTA in a 96-well half area black flat bottom plate (Cat. No. 3686, Corning, Corning, N.Y.). Fluorescence intensity was measured every 15 min at an excitation wave length of 485 nm and an emission wavelength of 535 nm for 120 min at 37° C. using ARVO SX+L (PerkinElmer, Wellesley, Mass.). CETP activity (RFU/min) was defined as the change in fluorescence intensity from 30 to 90 min.

Test [3] has as its system CETP. Kind of test: Ex vivo CETP activity in plasma of hamsters (saline or Triton WR-1339 treated). The settings on record: hamster. On the procedure: Nine- to ten-week-old, male golden Syrian hamsters were purchased from Japan SLC Inc. (Shizuoka, Japan). Animals underwent a more than 1-week acclimation period under the following conditions: 8:00/20:00 light/dark cycle, room temperature 23±2° C. […] During this time, animals received filtered (0.5 μm) water and a standard chow diet ad libitum.
Whole blood samples were collected using a heparin-washed syringe (Heparin sodium injection “Ajinomoto”; Ajinomoto, Tokyo, Japan) from the abdominal vein by venipuncture under isoflurane (Abbott Japan Co. Ltd.) inhalant anesthesia. After centrifugation at 15,000 rpm for 10 min at 4° C., heparinized plasma was prepared and stored at −80° C. until use.
CETP activity (RFU/min) was defined as the change in fluorescence intensity from 30 to 90 min.
The effect of an acute increase of plasma triglycerides in vivo (acute increase in triglyceride-rich particles) on the ability of Torcetrapib to alter plasma CETP activity, triglyceride and total cholesterol levels was investigated. Torcetrapib at doses of 3, 10 or 30 mg/kg or vehicle was administered once by gavage to hamsters fed a standard chow diet.
Compound or vehicle was administered once by gavage to hamsters fed a standard chow diet.

Where [4] appears, read: TG = 101.35 mg/dL (normal), read-out: CETP IC50 (nM) TG = 101.35 mg/dL.
Setting [5] is: TG = 374.5 mg/dL (high), read-out: CETP IC50 (nM) TG = 374.5 mg/dL.
[6] abbreviates: TG = 868.45 mg/dL (very high 1), read-out: CETP IC50 (nM) TG = 868.45 mg/dL.
[7] abbreviates: TG = 1269.35 mg/dL (very high 2), read-out: CETP IC50 (nM) TG = 1269.35 mg/dL.

Molecules are shown by their SMILES. Where two headings read alike, the source gives them in different places.

For `CCN(C[C@H]1CC[C@H](CC(=O)O)CC1)c1ccc(C(F)(F)F)cc1CN(c1ncc(OCCS(C)(=O)=O)cn1)[C@@H](C)c1cc(C(F)(F)F)cc(C(F)(F)F)c1` [Example 57A], the IC50 at CETP [1] (setting [4]) was 301 nM; on CETP [1] (setting [5]), 155 nM; on CETP [1] (setting [6]), 91.7 nM; on CETP [1] (setting [7]) it was 29.4 nM.
Consider `CCN(C[C@H]1CC[C@H](CC(=O)O)CC1)c1cc(C)c(C(F)(F)F)cc1CN(Cc1cc(C(F)(F)F)cc(C(F)(F)F)c1)c1nnn(C)n1` [Example 58], for which the IC50 on CETP [1] (setting [4]) stood at 82.2 nM; on CETP [1] (setting [5]) it was 151 nM; at CETP [1] (setting [6]) it was 280 nM; on CETP [1] (setting [7]) it was 372 nM.
For `CC[C@@H]1C[C@H](N(Cc2cc(C(F)(F)F)cc(C(F)(F)F)c2)c2ncc(-c3cnn(C)c3)cn2)C[C@H](CC)N1C(=O)O[C@H]1CC[C@H](C(=O)O)CC1` [Example 19], the results for the IC50 at CETP [1] (setting [4]), on CETP [1] (setting [5]) and on CETP [1] (setting [7]) were 71.9 nM, 116 nM and 540 nM, respectively.
On to `CC[C@@H]1C[C@H](N(Cc2cc(C(F)(F)F)cc(C(F)(F)F)c2)c2ncc(-c3cnn(C)c3)cn2)C[C@H](CC)N1C(=O)O[C@H]1C[C@H](C(=O)O)C1` [Example 17], for which the IC50 on CETP [1] (setting [4]) was found to be 114 nM; on CETP [1] (setting [5]) it was 62.7 nM; on CETP [1] (setting [6]), 40.2 nM; on CETP [1] (setting [7]), 29.6 nM.
Taken in the same sequence, the figures for `Cc1cc(C)c2c(c1)[C@@H](N(Cc1cc(C(F)(F)F)cc(C(F)(F)F)c1)c1nnn(C)n1)CCCN2C[C@H]1CC[C@H](C(=O)O)CC1` [Example 53] were 48.7 nM, 49.8 nM, 54.4 nM and 92.3 nM.
In the same order, the values of `CCN(C[C@H]1CC[C@H](CC(=O)O)CC1)c1ccc(C(F)(F)F)cc1CN(c1ncc(OCCS(C)(=O)=O)cn1)[C@H](C)c1cc(C(F)(F)F)cc(C(F)(F)F)c1` [Example 57B] are 669 nM, 1300 nM, 2300 nM and 2700 nM.
`Cn1nnc(N(Cc2cc(C(F)(F)F)cc(C(F)(F)F)c2)Cc2cc3cc(F)c(F)cc3nc2N2CCC[C@@H]2[C@H]2CC[C@H](C(=O)O)CC2)n1` [Example 49]: the IC50 at CETP [1] (setting [4]) worked out at 22.1 nM; on CETP [1] (setting [5]), 42.7 nM; on CETP [1] (setting [6]), 37.1 nM; on CETP [1] (setting [7]) it was 46.4 nM. For the same compound, the “Maximum inhibition of CETP activity, compound exogenously added, Triton WR-1339 group” value in the test on CETP [2] (Triton WR-1339 group) was approximately 100%. Further, the “Maximum inhibition of CETP activity, compound exogenously added, saline group” value in the test with CETP [2] (saline group) is recorded as approximately 100%. Further, the “Inhibition of CETP activity, lower dose group, Triton WR-1339 group” value with CETP [3] (oral gavage: Torcetrapib 5 mg/kg, Anacetrapib 1.5 mg/kg, Example 49 1.5 mg/kg, Example 8 0.75 mg/kg, Triton WR-1339 100 mg/kg i.v., not significant vs vehicle) came out at 26%. Also, the “Inhibition of CETP activity, lower dose group, saline group” value in the test with CETP [3] (oral gavage: Torcetrapib 5 mg/kg, Anacetrapib 1.5 mg/kg, Example 49 1.5 mg/kg, Example 8 0.75 mg/kg, saline i.v.) turned out to be 63%. For the same compound, in the test with CETP [3] (oral gavage: Torcetrapib 10 mg/kg, Anacetrapib 3 mg/kg, Example 49 3 mg/kg, Example 8 1.5 mg/kg, Triton WR-1339 100 mg/kg i.v.), the “Inhibition of CETP activity, higher dose group, Triton WR-1339 group” value stood at 38%. In addition, the “Inhibition of CETP activity, higher dose group, saline group” value in the test on CETP [3] (oral gavage: Torcetrapib 10 mg/kg, Anacetrapib 3 mg/kg, Example 49 3 mg/kg, Example 8 1.5 mg/kg, saline i.v.) was found to be 77%.
